Results published in patent US9580426B2, “Compounds that expand hematopoietic stem cells” (Novartis AG, priority 2008, dated 2017).
Where a name gives a salt, the structure may show the parent alone.

Tested on: Primary adult CD34+ human hematopoietic stem cells (HSCs)
Test: % CD34+ assay: HSC expansion screen, dose response
Assay type: cell-based
Details: not given
Procedure: Primary adult CD34^+ human hematopoietic stem cells (HSCs) are cultured and screened to identify compounds of the invention that facilitate HSC expansion. The cells are analyzed for the presence of the desired phenotype (CD34 expression). Compounds of the invention promote HSC expansion in a dose dependent manner.
Culture Medium: StemSpan SFEM medium is serum-free medium (StemCell Technologies, Vancouver, BC) supplemented with the following human recombinant cytokines: thrombopoietin, interleukin-6, Flt-3 ligand, and stem cell factor (all from R&D Systems, Minneapolis, Minn.), each at a final concentration of 50 ng/mL, with vehicle (DMSO) or a compound of the invention.
Human Cell Culture: Fresh human leukophoresed G-CSF mobilized peripheral blood from normal donors, CD34^+ cells from adult bone marrow and cryopreserved human cord blood CD34^+ cells are purchased from AllCells (Berkeley, Calif.). Human CD34^+ cells are enriched from leukophoresed G-CSF mobilized peripheral blood using magnetic cell sorting (MACS, Direct CD34 Progenitor Cell Isolation Kit, Miltenyi Biotec, Bergisch Gladbach, Germany) and cryopreserved. CD34^+ cell purity, checked by flow Cytometry, is higher than 90%. After thawing, the cell viability tested by trypan blue exclusion is higher than 70%. The thawed cells are centrifuged and resuspended with StemSpan medium before being aliquoted for immediate culture. Cells are plated at 10^4 cells/mL in a 384 well plate (Greiner Bio-One, Monroe, N.C.) with 50 μL of medium per well for 7 days. Every 7 days the cells are transferred to larger well plates and fresh medium is added to keep the cell density between 10^4 and 5×10^5 cells/mL. Cells were cultured at 37° C. in 5% CO2. For transplantation, cells were cultured in 75 cm^2 flasks before the cells were transplanted into mice. At a concentration of 1 micromolar, 4-(2-(2-(benzo[b]thiophen-3-yl)-9-isopropyl-9H-purin-6-ylamino)ethyl)phenol (compound 1, table 1; example 1), 4-(2-(2-(benzo[b]thiophen-3-yl)-9-sec-butyl-9H-purin-6-ylamino)ethyl)phenol (compound 2, table 1), and N-(2-(1H-indol-3-yl)ethyl)-2-(benzo[b]thiophen-3-yl)-9-isopropyl-9H-purin-6-amine (compound 9, table 1) each gives rise to a greater than 10-fold increase in the number of CD34^+ CD45RA^− cells derived from 1000 mPB CD34^+ HSCs after 21 days compared to vehicle. Compounds of the invention were assayed in a dose response format (1 nM to 10 μM) to determine the effective concentration that produced the desired effect in 50% of the cells (EC50).
With Cc1n[nH]c(C)c1CCCNc1nc(-c2csc3ccccc23)nc2c1ncn2C(C)C [2-(benzo[b]thiophen-3-yl)-N-(3-(3,5-dimethyl-1H-pyrazol-4-yl)propyl)-9-isopropyl-9H-purin-6-amine] the “activity relative to example 1 (less active)” value was roughly 20 fold.

Same assay, conditions: Homo sapiens, Hematopoietic stem cell; dose response 1 nM to 10 μM; total number and/or percent of CD34+ cells
Fc1cncc(-c2nc(NCCc3c[nH]c4ccccc34)c3ncn([C@@H]4CCOC4)c3n2)c1 [Example 158] showed an EC50 of 12 nM.
With CC(C)n1cnc2c(NCC(O)c3ccc(O)cc3)nc(-c3cncc(F)c3)nc21 (stereo not drawn) [Example 167] the EC50 was 290 nM.
With Cc1cccc2[nH]cc(CCNc3nc(-c4cncc(F)c4)nc4c3ncn4C(C)C)c12 [Example 197] the EC50 was 11 nM.
With CC(C)n1cnc2c(NCCc3ccc(OS(N)(=O)=O)cc3)nc(-c3cccnc3)nc21 [Example 114] the EC50 was 1100 nM.
Work on CC(C)n1ccc2c(NCCc3ccc(O)cc3)nc(-c3csc4ccccc34)nc21 [Example 198] yielded an EC50 of 1100 nM.
With CC(C)n1cnc2c(NCCc3c[nH]c4cc(F)ccc34)nc(-c3cncc(F)c3)nc21 [Example 188] the EC50 was 5 nM.
Compound Fc1ccc(CCNc2nc(-c3csc4ccccc34)nc3c2ncn3-c2ccccc2)cc1 [Example 19] has an EC50 of 1100 nM.
Compound CC(C)n1cnc2c(NCCc3ccc(O)cc3)nc(-c3cccnc3C#N)nc21 [Example 143] has an EC50 of 4300 nM.
CC(C)n1cnc2c(NCCc3ccc(O)cc3)nc(-n3ccnc3)nc21 [Example 40] gave an EC50 of 260 nM.
With CC(C)n1cnc2c(NCCc3ccc(O)cc3)cc(-c3cncc(F)c3)nc21 [Example 177, 4-(2-(5-(5-Fluoropyridin-3-yl)-3-isopropyl-3H-imidazo[4,5-b]pyridin-7-ylamino)ethyl)phenol] the EC50 was 140 nM.
CC(C)n1cnc2c(NCCc3ccc(O)cc3)nc(-c3cncc(C#N)c3)nc21 [Example 37] gave an EC50 of 24 nM.
With CC(C)n1cnc2c(NCCc3ccc(O)cc3)nc(-n3cnc4ncccc43)nc21 [Example 160] the EC50 was 1900 nM.
For CC(CO)n1cnc2c(NCCc3c[nH]c4ccccc34)nc(-c3cncc(F)c3)nc21 (stereo not drawn) [Example 157, 2-(6-(2-(1H-indol-3-yl)ethylamino)-2-(5-fluoropyridin-3-yl)-9H-purin-9-yl)propan-1-ol], the EC50 was 5 nM.
In the case of CCCc1nccn1-c1nc(NCCc2ccc(O)cc2)c2ncn(C(C)C)c2n1 [Example 181], the EC50 is reported as 2500 nM.

Tested on: mPB-derived CD34+ cells
Test: Genome-wide transcriptional profiling
Assay type: cell-based, human
Details: 1 μM; 24 hours
Description: The two genes that were the most highly repressed by treatment with Example 1 (cytochrome P450 1B1 [CYP1B1] and the aryl hydrocarbon receptor repressor [AHRR]) are transcriptionally regulated by the aryl hydrocarbon receptor (AHR). Therefore, compounds of the invention could be acting as an antagonist of AHR signaling.
For Cc1n[nH]c(C)c1CCCNc1nc(-c2csc3ccccc23)nc2c1ncn2C(C)C [2-(benzo[b]thiophen-3-yl)-N-(3-(3,5-dimethyl-1H-pyrazol-4-yl)propyl)-9-isopropyl-9H-purin-6-amine], the “down-regulation of 5 genes (most repressed: CYP1B1, AHRR)” value was “none were significantly affected”.

Same assay, conditions: 24 hours
In the case of Cc1n[nH]c(C)c1CCCNc1nc(-c2csc3ccccc23)nc2c1ncn2C(C)C [2-(benzo[b]thiophen-3-yl)-N-(3-(3,5-dimethyl-1H-pyrazol-4-yl)propyl)-9-isopropyl-9H-purin-6-amine], the “up-regulation of 5 genes of >50,000 probe sets” value is reported as “induced to some degree”.

Tested on: CYP1B1 mRNA in mPB-derived CD34+ cells
Test: TCDD-mediated CYP1B1 mRNA expression by qPCR
Assay type: cell-based, human
Details: 3 nM; vehicle 0.01% toluene
Procedure: Further, the ability of Example 1 to block 2,3,7,8-tetrachlorodibenzo-p-dioxin (TCDD, dioxin)-mediated CYP1B1 mRNA expression by qPCR in mPB-derived CD34^+ cells was determined. Treatment with TCDD (3 nM) caused a 4.5-fold increase in the level of CYP1B1 mRNA compared with the vehicle control (0.01% toluene). […] To determine the effects of Example 1 in AHR transcription the ability of Example 1 to inhibit a dioxin-induced AHR dependent luciferase reporter gene assay was tested.
With Clc1cc2c(cc1Cl)Oc1cc(Cl)c(Cl)cc1O2 [TCDD, 2,3,7,8-tetrachlorodibenzo-p-dioxin] the “increase in the level of CYP1B1 mRNA compared with vehicle control” value was 4.5 fold.

Tested on: mPB-derived CD34+ cell
Test: 7 day culture with AHR antagonists, expansion of CD34+ cells
Assay type: cell-based, human
Details: 0.75 μM; 7 days
Procedure: To further explore the role of AHR signaling in HSCs two other AHR antagonists (alpha-naphthoflavone and CH-223191) were tested. Both compounds lead to dose dependent increases in the number of CD34^+ cells when cultured with mPB-derived CD34^+ cell for 7 days: inclusion of 1 μM CH223191 afforded a 2.2-fold expansion of CD34^+ cells; 0.75 μM α-naphthoflavone afforded a 1.9-fold expansion of CD34^+ cells while 0.75 μM Example 1 afforded a 3.4-fold expansion of total CD34^+ cells. […] Forty-eight hours following transduction, CD34+GFP^+ cells were purified by cell sorting and the levels of AHR were determined by qPCR. Both AHR targeting shRNAs led to decreases in AHR expression following transduction (81% with sh111 and 51% with sh242). These decreases were not seen in cells lacking GFP or in cells transduced with control virus.
In the case of O=c1cc(-c2ccccc2)oc2c1ccc1ccccc12 [α-naphthoflavone, alpha-naphthoflavone], the “expansion of CD34+ cells” value is reported as 1.9 fold.

Same assay, conditions: 1 μM; 7 days
With Cc1ccccc1N=Nc1ccc(NC(=O)c2ccnn2C)c(C)c1 [CH223191, 2-methyl-2H-pyrazole-3-carboxylic acid (2-methyl-4-o-tolylazophenyl)amide] the “expansion of CD34+ cells” value was 2.2 fold.

Tested on: not listed separately
Test: Water uptake by thermogravimetry after exposure to relative humidity
Assay type: physicochemical
Details: 80% rh during 24 hours
Procedure: Mesylate salt: 4-(2-(2-(benzo[b]thiophen-3-yl)-9-isopropyl-9H-purin-6-ylamino)ethyl)phenol free base (0.60 g; 1.40 mmoles) are dissolved in 12 ml acetone at 50° C. Methanesulfonic acid (0.137 g; 1.40 mmoles) is added drop wise. The crystallization takes place rapidly. The white suspension is allowed to cool over about 30 minutes with cooling to room temperature. The slurry is stirred for 18 hours at room temperature and filtered. The solid is washed with acetone (6 ml) in three portions and dried first for about 3 hours at 50° C./ca. 10 mbar and then for about 16 hours at 80° C./ca. 10 mbar. […] The water uptake was estimated by thermogravimetry after exposure to relative humidity (80% rh) during 24 hours. A water uptake of 0.4% was observed.
For CC(C)n1cnc2c(NCCc3ccc(O)cc3)nc(-c3csc4ccccc34)nc21 [Hydrobromide salt, 4-(2-(2-(benzo[b]thiophen-3-yl)-9-isopropyl-9H-purin-6-ylamino)ethyl)phenol], the water uptake was “No water uptake”.
For CC(C)n1cnc2c(NCCc3ccc(O)cc3)nc(-c3csc4ccccc34)nc21 [Napadisylate salt, 4-(2-(2-(benzo[b]thiophen-3-yl)-9-isopropyl-9H-purin-6-ylamino)ethyl)phenol], the water uptake was “less than 0.05%”.
Compound CC(C)n1cnc2c(NCCc3ccc(O)cc3)nc(-c3csc4ccccc34)nc21 [Esylate salt, 4-(2-(2-(benzo[b]thiophen-3-yl)-9-isopropyl-9H-purin-6-ylamino)ethyl)phenol] has a water uptake of 0.05%.
Compound CC(C)n1cnc2c(NCCc3ccc(O)cc3)nc(-c3csc4ccccc34)nc21 [Hydrochloride salt, 4-(2-(2-(benzo[b]thiophen-3-yl)-9-isopropyl-9H-purin-6-ylamino)ethyl)phenol] has a water uptake of 0.3%.
With CC(C)n1cnc2c(NCCc3ccc(O)cc3)nc(-c3csc4ccccc34)nc21 [Besylate salt, 4-(2-(2-(benzo[b]thiophen-3-yl)-9-isopropyl-9H-purin-6-ylamino)ethyl)phenol] the water uptake was “about 0.05%”.
Compound CC(C)n1cnc2c(NCCc3ccc(O)cc3)nc(-c3csc4ccccc34)nc21 [Sulfate salt, 4-(2-(2-(benzo[b]thiophen-3-yl)-9-isopropyl-9H-purin-6-ylamino)ethyl)phenol] has a water uptake of 0.2%.
Work on CC(C)n1cnc2c(NCCc3ccc(O)cc3)nc(-c3csc4ccccc34)nc21 [Hemi-fumarate salt, 4-(2-(2-(benzo[b]thiophen-3-yl)-9-isopropyl-9H-purin-6-ylamino)ethyl)phenol] yielded a water uptake of 0.3%.
Work on CC(C)n1cnc2c(NCCc3ccc(O)cc3)nc(-c3csc4ccccc34)nc21 [Tosylate salt, 4-(2-(2-(benzo[b]thiophen-3-yl)-9-isopropyl-9H-purin-6-ylamino)ethyl)phenol] yielded a water uptake of 0.4%.
For CC(C)n1cnc2c(NCCc3ccc(O)cc3)nc(-c3csc4ccccc34)nc21 [Orotate salt, 4-(2-(2-(benzo[b]thiophen-3-yl)-9-isopropyl-9H-purin-6-ylamino)ethyl)phenol], the water uptake was 1.7%.
For CC(C)n1cnc2c(NCCc3ccc(O)cc3)nc(-c3csc4ccccc34)nc21 [Mesylate salt, 4-(2-(2-(benzo[b]thiophen-3-yl)-9-isopropyl-9H-purin-6-ylamino)ethyl)phenol], the water uptake was 0.4%.
